Patent US20240247080A1, “GLP1/GIP/NPY2 RECEPTOR TRIPLE AGONISTS” (Boehringer Ingelheim International GmbH, priority 2022, published 2024)
Like-named read-outs stand apart in the source and are kept apart here. Starred links: 1 amine or outer side, 2 acyl side, 3 side chain; linkers in the order of their positions; H or OH if unused. Non-standard residues stand in square brackets, D forms with d. Groups on a side chain read outwards from the residue. No end group written: not given here. *: point of attachment. C20 diacid = O=C(O)CCCCCCCCCCCCCCCCCCC(=O)*; C18 diacid = O=C(O)CCCCCCCCCCCCCCCCC(=O)*; γGlu = O=C(O)[C@H](CCC(=O)[*:2])N[*:1]; εLys = N[C@@H](CCCCN[*:1])C(=O)[*:2]; NMeR = CN[C@@H](CCCNC(=N)N)C(=O)O; β3hQ = NC(=O)CC[C@H](N)CC(=O)O; AEEA = NCCOCCOCC(=O)O; Aib = CC(C)(N)C(=O)O; Ahx = NCCCCCC(=O)O

Tests used:
Type in all cases: cell-based
Conditions in all cases: CreLuc reporter gene assay
hGLP1R = molecular target: T1, hGLP1R (Homo sapiens, UniProt P43220); experiment: hGLP1R CreLuc reporter gene assay in 0.5% and 100% plasma
T1 construct: expressed in transfected cells; host or cells: HEK-293 cells carrying a CRE-luciferase reporter gene
T1 sequence (P43220 24-463): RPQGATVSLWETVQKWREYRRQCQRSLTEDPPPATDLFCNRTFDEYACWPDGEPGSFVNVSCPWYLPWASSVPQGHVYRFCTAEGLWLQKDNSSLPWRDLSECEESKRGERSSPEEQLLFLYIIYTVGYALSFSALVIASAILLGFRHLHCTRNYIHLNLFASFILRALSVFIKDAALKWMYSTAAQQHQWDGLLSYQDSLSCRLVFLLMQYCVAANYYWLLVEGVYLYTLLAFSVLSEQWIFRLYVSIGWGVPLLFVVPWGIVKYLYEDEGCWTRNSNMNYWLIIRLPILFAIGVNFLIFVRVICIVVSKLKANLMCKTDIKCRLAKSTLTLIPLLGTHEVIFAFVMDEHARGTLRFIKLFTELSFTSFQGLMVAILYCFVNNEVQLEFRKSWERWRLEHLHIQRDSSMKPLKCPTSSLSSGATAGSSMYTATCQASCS
Method in brief: (§1)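 Agonist EC50s came from 8-concentration curves over four decades, fitted by non-linear variable-slope regression of CRE-driven luciferase luminescence. Cells were exposed 4 h at 37 °C, in buffer with 0.5% human plasma or in 100% plasma; GIPR was expressed in CHO cells, GLP-1R and NPY2R in HEK cells.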

hGIPR = molecular target: T2, hGIPR (Homo sapiens, UniProt P48546); experiment: hGIPR CreLuc reporter gene assay in 0.5% and 100% plasma
T2 construct: expressed in transfected cells; host or cells: CHO cells carrying a CRE-luciferase reporter gene
T2 sequence (P48546 22-466): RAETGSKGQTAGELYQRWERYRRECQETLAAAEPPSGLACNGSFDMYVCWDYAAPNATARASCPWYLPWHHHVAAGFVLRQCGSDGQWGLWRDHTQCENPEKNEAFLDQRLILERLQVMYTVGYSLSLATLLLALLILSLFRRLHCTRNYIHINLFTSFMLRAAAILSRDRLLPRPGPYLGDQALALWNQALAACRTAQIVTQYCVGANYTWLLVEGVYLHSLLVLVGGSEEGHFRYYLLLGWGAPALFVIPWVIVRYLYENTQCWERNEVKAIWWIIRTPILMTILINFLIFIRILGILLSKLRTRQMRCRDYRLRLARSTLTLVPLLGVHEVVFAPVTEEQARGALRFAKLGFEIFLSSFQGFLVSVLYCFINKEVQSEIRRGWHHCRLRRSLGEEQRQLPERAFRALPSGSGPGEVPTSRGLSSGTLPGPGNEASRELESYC
Method in brief: as §1

hNPY2R = molecular target: T3, hNPY2R (Homo sapiens, UniProt P49146); experiment: hNPY2R CreLuc reporter gene assay in 0.5% and 100% plasma
T3 construct: expressed in transfected cells; host or cells: HEK-293 cells carrying a CRE-luciferase reporter gene
T3 sequence (P49146 1-381): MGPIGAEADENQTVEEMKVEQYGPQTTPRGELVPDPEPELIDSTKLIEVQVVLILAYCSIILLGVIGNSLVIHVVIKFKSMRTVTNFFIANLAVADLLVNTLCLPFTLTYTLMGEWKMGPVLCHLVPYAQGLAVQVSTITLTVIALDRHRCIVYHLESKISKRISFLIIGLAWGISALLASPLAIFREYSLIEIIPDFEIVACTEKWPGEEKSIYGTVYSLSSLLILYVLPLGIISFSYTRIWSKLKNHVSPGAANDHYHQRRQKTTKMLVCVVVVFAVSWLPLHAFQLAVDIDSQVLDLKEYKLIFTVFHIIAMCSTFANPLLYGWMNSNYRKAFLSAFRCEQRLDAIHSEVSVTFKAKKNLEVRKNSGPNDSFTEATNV
Method in brief: as §1

[1] = 0.5% human plasma, read-out: hGLP1R 0.5% hP
[2] = 0.5% human plasma, read-out: hGIPR 0.5% hP
[3] = 100% human plasma, read-out: hGIPR 100% hP
[4] = 0.5% human plasma, read-out: hNPY2R 0.5% hP
[5] = 100% human plasma, read-out: hNPY2R 100% hP
[6] = 100% human plasma, read-out: hGLP1R 100% hP

Row | Molecule | EC50 (hGLP1R; [1]) | EC50 (hGIPR; [2]) | EC50 (hGIPR; [3]) | EC50 (hNPY2R; [4]) | EC50 (hNPY2R; [5]) | EC50 (hGLP1R; [6])
1 | H-Y[Aib]EGTFTSDYSI[Aib]LEKQAQ[Aib]AFVEWLIK([εLys-γGlu-γGlu-γGlu-γGlu-γGlu-γGlu-C20 diacid])GGPSSGASLRHYYNWLTR[β3hQ]RY-NH2 [Compound 208, Y-Aib-E-G-T-F-T-S-D-Y-S-I-Aib-L-E-K-Q-A-Q-Aib-A-F-V-E-W-L-I-K(1,3)-G-G-P-S-S-G-A-S-L-R-H-Y-Y-N-W-L-T-R-bHGln-R-Y-NH2.C20DA-gGlu-gGlu-gGlu-gGlu-gGlu-gGlu-eLys(1,2)] | 0.11 nM | 0.07 nM | 0.81 nM | > 100 nM | > 1000 nM | –
2 | CC[C@H](C)[C@H](NC(=O)[C@H](CC(C)C)NC(=O)[C@H](Cc1c[nH]c2ccccc12)NC(=O)[C@H](CCC(=O)O)NC(=O)[C@@H](NC(=O)[C@H](Cc1ccccc1)NC(=O)[C@H](C)NC(=O)C(C)(C)NC(=O)[C@H](CCC(N)=O)NC(=O)[C@H](C)NC(=O)[C@H](CCC(N)=O)NC(=O)[C@H](CCCCN)NC(=O)[C@H](CCC(=O)O)NC(=O)[C@H](CC(C)C)NC(=O)C(C)(C)NC(=O)[C@@H](NC(=O)[C@H](CO)NC(=O)[C@H](Cc1ccc(O)cc1)NC(=O)[C@H](CC(=O)O)NC(=O)[C@H](CO)NC(=O)[C@@H](NC(=O)[C@H](Cc1ccccc1)NC(=O)[C@@H](NC(=O)CNC(=O)[C@H](CCC(=O)O)NC(=O)C(C)(C)NC(=O)[C@@H](N)Cc1ccc(O)cc1)[C@@H](C)O)[C@@H](C)O)[C@@H](C)CC)C(C)C)C(=O)N[C@@H](CCCCNC(=O)[C@@H](N)CCCCNC(=O)CC[C@H](NC(=O)CC[C@H](NC(=O)CC[C@H](NC(=O)CC[C@H](NC(=O)CC[C@H](NC(=O)CC[C@H](NC(=O)CCCCCCCCCCCCCCCCCCC(=O)O)C(=O)O)C(=O)O)C(=O)O)C(=O)O)C(=O)O)C(=O)O)C(=O)NCC(=O)NCC(=O)N1CCC[C@H]1C(=O)N[C@@H](CO)C(=O)N[C@@H](CO)C(=O)NCC(=O)N[C@@H](C)C(=O)N[C@@H](CO)C(=O)N[C@H](CC(C)C)C(=O)N[C@@H](CCCNC(=N)N)C(=O)N[C@H](Cc1c[nH]cn1)C(=O)N[C@@H](Cc1ccc(O)cc1)C(=O)N[C@@H](Cc1ccc(O)cc1)C(=O)N[C@@H](CC(N)=O)C(=O)N[C@@H](Cc1c[nH]c2ccccc12)C(=O)N[C@@H](CC(C)C)C(=O)N[C@H](C(=O)N[C@H](CCCNC(=N)N)C(=O)N[C@@H](CCC(N)=O)C(=O)N[C@@H](CCCNC(=N)N)C(=O)N[C@H](Cc1ccc(O)cc1)C(N)=O)[C@@H](C)O [Compound 5, Y-Aib-E-G-T-F-T-S-D-Y-S-I-Aib-L-E-K-Q-A-Q-Aib-A-F-V-E-W-L-I-K(1,3)-G-G-P-S-S-G-A-S-DLeu-R-DHis-Y-Y-N-W-L-T-DArg-Q-R-DTyr-NH2.C20DA-gGlu-gGlu-gGlu-gGlu-gGlu-gGlu-eLys(1,2)] | 0.11 nM | 0.17 nM | 1.07 nM | > 99.9 nM | > 999 nM | –
3 | H-Y[Aib]EGTFTSDYSI[Aib]LEKQAQ[Aib]AFVQWLIK([Glu-Glu-Glu-Glu-C18 diacid])GGPSEGASLRHYYNWLTRQRY-NH2 [Compound 281, Y-Aib-E-G-T-F-T-S-D-Y-S-I-Aib-L-E-K-Q-A-Q-Aib-A-F-V-Q-W-L-I-K(1,3)-GGPSEGASLRHYYNWLTRQRY-NH2.C18DA-E-E-E-E(1,2)] | 0.07 nM | 0.28 nM | 0.69 nM | 23 nM | – | 1.78 nM
4 | Y[Aib]EGTFTSDYSI[Aib]LEKQAQ[Aib]AFVQWLIK([Ahx-γGlu-γGlu-γGlu-γGlu-γGlu-γGlu-C18 diacid])GGPSEGASLRHYYNWLTRQRY-NH2 [Compound 245, Y-Aib-E-G-T-F-T-S-D-Y-S-I-Aib-L-E-K-Q-A-Q-Aib-A-F-V-Q-W-L-I-K(1,3)-GGPSEGASLRHYYNWLTRQRY-NH2.C18DA-gGlu-gGlu-gGlu-glu-gGlu-Glu-AHX(1,2)] | 0.09 nM | 0.37 nM | – | 24.5 nM | – | –
5 | H-Y[Aib]EGTFTSDYSI[Aib]LEKQAQ[Aib]AFVEWLIK([γGlu-γGlu-γGlu-γGlu-γGlu-γGlu-C20 diacid])GGGSEYVSLRHYYNWLTRQRY-NH2 [Compound 65, Y-Aib-E-G-T-F-T-S-D-Y-S-I-Aib-L-E-K-Q-A-Q-Aib-A-F-V-E-W-L-I-K(1,3)-GGGSEYVSLRHYYNWLTRQRY-NH2.C20DA-gGlu-gGlu-gGlu-gGlu-gGlu-gGlu(1,2)] | 2.65 nM | 1.03 nM | – | 11 nM | – | –
6 | H-Y[Aib]EGTFTSDYSI[Aib]LEKQAQ[Aib]AFVQWLIK([AEEA-AEEA-γGlu-γGlu-γGlu-γGlu-C18 diacid])GGPESGASLRHYYNWLTRQRY-NH2 [Compound 58, Y-Aib-E-G-T-F-T-S-D-Y-S-I-Aib-L-E-K-Q-A-Q-Aib-A-F-V-Q-W-L-I-K(1,3)-GGPESGASLRHYYNWLTRQRY-NH2.C18DA-gGlu-gGlu-gGlu-gGlu-OEG-OEG(1,2)] | 0.05 nM | 0.24 nM | 0.31 nM | 10.2 nM | – | 2 nM
7 | H-Y[Aib]EGTFTSDYSI[Aib]LEKQAQ[Aib]AFVEWLIK([εLys-γGlu-γGlu-γGlu-γGlu-γGlu-γGlu-C20 diacid])GGPSSGASLRHYY[Aib]WLTRQRY-NH2 [Compound 213, Y-Aib-E-G-T-F-T-S-D-Y-S-I-Aib-L-E-K-Q-A-Q-Aib-A-F-V-E-W-L-I-K(1,3)-G-G-P-S-S-G-A-S-L-R-H-Y-Y-Aib-W-L-T-R-Q-R-Y-NH2.C20DA-gGlu-gGlu-gGlu-gGlu-gGlu-gGlu-eLys(1,2)] | 0.16 nM | 0.34 nM | 1.53 nM | > 100 nM | > 1000 nM | –
8 | H-Y[Aib]EGTFTSDYSI[Aib]LEKQAQ[Aib]AFVQWLIK([εLys-γGlu-γGlu-γGlu-γGlu-γGlu-γGlu-C20 diacid])GGPSEGASLRHYYNWLTRQ[NMeR]Y-NH2 [Compound 125, Y-Aib-E-G-T-F-T-S-D-Y-S-I-Aib-L-E-K-Q-A-Q-Aib-A-F-V-Q-W-L-I-K(1,3)-G-G-P-S-E-G-A-S-L-R-H-Y-Y-N-W-L-T-R-Q-NMeR-Y-NH2.C20DA-gGlu-gGlu-gGlu-gGlu-gGlu-gGlu-eLys(1,2)] | 0.23 nM | 0.28 nM | 1.72 nM | 30.9 nM | 99.3 nM | –
9 | Y[Aib]EGTFTSDYSI[Aib]LEKQAQ[Aib]AFVEWLIK([εLys-γGlu-γGlu-γGlu-γGlu-γGlu-C18 diacid])GGPSEGASLRHYYNWLTRQRY-NH2 [Compound 295, Y-Aib-E-G-T-F-T-S-D-Y-S-I-Aib-L-E-K-Q-A-Q-Aib-A-F-V-E-W-L-I-K(1,3)-GGPSEGASLRHYYNWLTRQRY-NH2.C18DA-gGlu-gGlu-glu-gGlu-gGlu-eLys(1,2)] | 0.14 nM | 0.3 nM | 0.98 nM | 10.9 nM | – | –
10 | H-Y[Aib]EGTFTSDYSI[Aib]LEKQAQ[Aib]AFVQWLIK([εLys-γGlu-γGlu-γGlu-γGlu-γGlu-C20 diacid])GGPSEPASLRHYYNWLTRQRY-NH2 [Compound 169, Y-Aib-E-G-T-F-T-S-D-Y-S-I-Aib-L-E-K-Q-A-Q-Aib-A-F-V-Q-W-L-I-K(1,3)-GGPSEPASLRHYYNWLTRQRY-NH2.C20DA-gGlu-gGlu-gGlu-gGlu-gGlu-eLys(1,2)] | 0.13 nM | 0.26 nM | – | 10.3 nM | 50.3 nM | –
